Results as given in the supplement of paper PMC10307832.

Assays:
Assay in all cases: relative viability (nuclei count vs DMSO), 5 days (fraction); higher = more cells survive
Bleomycin + Luminespib = compound: CC1=C(N=C(N=C1N)[C@H](CC(=O)N)NC[C@@H](C(=O)N)N)C(=O)N[C@@H]([C@H](C2=CN=CN2)OC3C(C(C(C(O3)CO)O)O)OC4C(C(C(C(O4)CO)O)OC(=O)N)O)C(=O)N[C@H](C)[C@H]([C@H](C)C(=O)N[C@@H]([C@@H](C)O)C(=O)NCCC5=NC(=CS5)C6=NC(=CS6)C(=O)NCCC[S+](C)C)O [Bleomycin] + CCNC(=O)c1noc(-c2cc(C(C)C)c(O)cc2O)c1-c1ccc(CN2CCOCC2)cc1 [Luminespib] (partner 0.01 µM); conditions: main component drawn
Procedure, shortened: (§1)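 After 5 days of treatment, lung cancer cells in 1536-well plates were fixed and stained in a single step (final 0.05% Triton X-100, 1% formaldehyde, 1 ug/ml Hoechst) and their nuclei counted on 4× images. Treatment had been applied by pin tool the day after seeding as one drug alone or as a fixed anchor-drug dose with five library-drug doses (not always all listed) in √10 steps. Relative viability is the nuclei count of treated wells divided by that of vehicle wells, and values are medians of duplicate plates.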

Bleomycin + Phenformin = compound: CC1=C(N=C(N=C1N)[C@H](CC(=O)N)NC[C@@H](C(=O)N)N)C(=O)N[C@@H]([C@H](C2=CN=CN2)OC3C(C(C(C(O3)CO)O)O)OC4C(C(C(C(O4)CO)O)OC(=O)N)O)C(=O)N[C@H](C)[C@H]([C@H](C)C(=O)N[C@@H]([C@@H](C)O)C(=O)NCCC5=NC(=CS5)C6=NC(=CS6)C(=O)NCCC[S+](C)C)O [Bleomycin] + N=C(N)NC(=N)NCCc1ccccc1 [Phenformin] (partner 250 µM); conditions: main component drawn
Procedure, shortened: as §1

Bleomycin + Decitabine = compound: CC1=C(N=C(N=C1N)[C@H](CC(=O)N)NC[C@@H](C(=O)N)N)C(=O)N[C@@H]([C@H](C2=CN=CN2)OC3C(C(C(C(O3)CO)O)O)OC4C(C(C(C(O4)CO)O)OC(=O)N)O)C(=O)N[C@H](C)[C@H]([C@H](C)C(=O)N[C@@H]([C@@H](C)O)C(=O)NCCC5=NC(=CS5)C6=NC(=CS6)C(=O)NCCC[S+](C)C)O [Bleomycin] + Nc1ncn([C@H]2C[C@H](O)[C@@H](CO)O2)c(=O)n1 [Decitabine] (partner 2 µM); conditions: main component drawn
Procedure, shortened: as §1

Etoposide + Linsitinib = compound: COc1cc([C@@H]2c3cc4c(cc3[C@@H](O[C@@H]3O[C@@H]5CO[C@@H](C)O[C@H]5[C@H](O)[C@H]3O)[C@H]3COC(=O)[C@H]23)OCO4)cc(OC)c1O [Etoposide] + C[C@]1(O)C[C@@H](c2nc(-c3ccc4ccc(-c5ccccc5)nc4c3)c3c(N)nccn32)C1 [Linsitinib] (partner 1 µM)
Procedure, shortened: as §1

Cell Line | relative viability (Bleomycin + Luminespib; first compound 0.01 µM) | relative viability (Bleomycin + Luminespib; first compound 0.03162 µM) | relative viability (Bleomycin + Luminespib; first compound 0.1 µM) | relative viability (Bleomycin + Luminespib; first compound 0.3162 µM) | relative viability (Bleomycin + Luminespib; first compound 1 µM) | relative viability (Bleomycin + Phenformin; first compound 0.01 µM) | relative viability (Bleomycin + Phenformin; first compound 0.03162 µM) | relative viability (Bleomycin + Phenformin; first compound 0.1 µM) | relative viability (Bleomycin + Phenformin; first compound 0.3162 µM) | relative viability (Bleomycin + Phenformin; first compound 1 µM) | relative viability (Bleomycin + Decitabine; first compound 0.01 µM) | relative viability (Bleomycin + Decitabine; first compound 0.03162 µM) | relative viability (Bleomycin + Decitabine; first compound 0.1 µM) | relative viability (Bleomycin + Decitabine; first compound 0.3162 µM) | relative viability (Bleomycin + Decitabine; first compound 1 µM) | relative viability (Etoposide + Linsitinib; first compound 0.01 µM) | relative viability (Etoposide + Linsitinib; first compound 0.03162 µM) | relative viability (Etoposide + Linsitinib; first compound 0.1 µM) | relative viability (Etoposide + Linsitinib; first compound 0.3162 µM) | relative viability (Etoposide + Linsitinib; first compound 1 µM)
NCI-H2342 | 0.646 | 0.665 | 0.693 | 0.523 | 0.525 | 0.552 | 0.707 | 0.626 | 0.441 | 0.528 | 0.692 | 0.624 | 0.619 | 0.547 | 0.556 | – | – | – | – | –
SK-MES-1 | 0.701 | 0.641 | 0.641 | 0.244 | 0.202 | 0.58 | 0.617 | 0.546 | 0.217 | 0.174 | 0.321 | 0.356 | 0.305 | 0.177 | 0.164 | 1.05 | 1.07 | 0.862 | 0.612 | 0.262
NCI-H2087 | – | 0.162 | 0.188 | 0.124 | 0.142 | – | 0.465 | 0.379 | 0.184 | 0.162 | 0.261 | 0.27 | 0.229 | 0.144 | 0.183 | – | 1.06 | 0.889 | 0.588 | 0.303
HCC-366 | – | – | – | – | – | 0.455 | 0.618 | 0.423 | 0.159 | 0.0675 | 0.242 | 0.26 | 0.132 | 0.069 | 0.0541 | 0.474 | 0.678 | 0.337 | 0.166 | 0.0566
201T | 1.06 | 0.984 | 0.936 | 0.667 | 0.656 | 0.447 | 0.436 | 0.47 | 0.361 | 0.364 | 0.839 | 0.816 | 0.677 | 0.735 | 0.561 | 1.12 | 1.04 | 0.899 | 1 | 0.745
HCC-827 | 0.525 | 0.576 | 0.377 | 0.39 | 0.233 | 0.351 | 0.311 | 0.361 | 0.304 | 0.172 | 0.304 | – | 0.287 | 0.249 | 0.198 | 0.983 | 0.919 | 0.931 | 0.659 | 0.33
NCI-H650 | 0.541 | 0.729 | 0.694 | 0.2 | 0.15 | 0.342 | 0.399 | 0.384 | 0.327 | 0.202 | 0.305 | 0.318 | 0.299 | 0.2 | 0.175 | 0.856 | 0.809 | 0.452 | 0.445 | 0.187
NCI-H2023 | 0.526 | 0.531 | 0.454 | 0.128 | 0.0778 | 0.34 | 0.326 | 0.312 | 0.157 | 0.101 | 0.195 | 0.195 | 0.152 | 0.113 | 0.0909 | 0.617 | 0.646 | 0.651 | 0.444 | 0.171
NCI-H596 | 0.755 | 0.617 | 0.552 | 0.335 | 0.377 | 0.673 | 0.728 | 0.635 | 0.343 | 0.366 | 1 | 0.83 | 0.55 | 0.495 | 0.509 | 0.86 | 1.13 | – | 0.948 | 0.884
SK-LU-1 | 0.197 | 0.202 | 0.272 | 0.216 | 0.191 | 0.46 | 0.696 | 0.5 | 0.31 | 0.209 | 0.598 | 0.631 | 0.655 | 0.554 | 0.492 | 1.03 | 1.03 | 0.829 | 0.401 | 0.281
A-427 | 0.747 | 0.775 | 0.753 | 0.256 | 0.158 | 0.253 | 0.349 | 0.269 | 0.175 | 0.113 | 0.429 | 0.495 | 0.406 | 0.29 | 0.266 | 1.17 | 1.16 | 0.815 | 0.841 | 0.243
NCI-H460 | 0.0436 | 0.0291 | 0.0214 | 0.0162 | 0.0138 | 0.287 | 0.275 | 0.124 | 0.0345 | 0.0288 | 0.301 | 0.228 | 0.279 | 0.0468 | 0.0408 | 0.684 | 0.601 | 0.447 | 0.0349 | 0.0212
NCI-H1703 | – | – | – | – | – | – | – | – | – | – | – | – | – | – | – | 0.672 | 1.04 | 0.642 | 0.641 | 0.329
NCI-H1792 | 0.393 | 0.424 | 0.553 | 0.239 | 0.251 | 0.316 | 0.309 | 0.195 | 0.197 | 0.164 | 0.521 | 0.649 | 0.558 | 0.3 | 0.252 | 0.405 | 0.331 | 0.261 | 0.418 | 0.289
Calu-6 | – | – | – | – | – | – | – | – | – | – | – | – | – | – | – | 0.914 | 1.01 | 0.819 | 0.758 | 0.39
SW 1573 | 0.508 | 0.616 | 0.118 | 0.174 | 0.116 | 0.276 | 0.316 | 0.272 | 0.205 | 0.14 | 0.368 | 0.442 | 0.311 | 0.19 | 0.197 | 0.884 | 0.76 | 0.646 | 0.327 | 0.277
